The source of these data is patent US12233070B2, “Methods for treating benzodiazepine misuse/use disorder” (University of M[…] Center, priority 2020, dated 2025).

Data set [1] has as its system rhesus monkeys. Kind of data set: Conflict model of anxiolysis (mult FR, FR+PUN). The following applies: i.v.; for Non-Suppressed, Mean responses/s (SEM) / Suppressed, Mean responses/s (SEM): N = 4 monkeys. The class given is in vivo, rhesus monkey. The text has this: The conflict procedure methodology includes a two-component multiple fixed-ratio, fixed-ratio plus punishment schedule (mult FR, FR+PUN). An important feature of this model is that it is highly predictive of clinically active doses in human subjects (Rowlett et al. 2006, Psychopharmacology 184: 201-11). One component of this schedule was associated with a distinctive visual stimulus (e.g., red light) and the other component was associated with a different stimulus (e.g., green light). In each component, completion of 10 responses (FR 10) produced a food pellet followed by a brief (10 sec) timeout period. The component ended following delivery of 5 food pellets or 5 min, whichever occurred first. A 10-min timeout period occurred before each of four cycles with two components (1 red, 1 green) per cycle. When performance in both components of the multiple schedule was stable, responding in one component was suppressed by superimposing a FR schedule of response-produced electric shock. Under the superimposed schedule, every nth response (n=15-25, adjusted for each monkey depending on individual performance) produced shock. Once responding was stable (at least three sessions in which suppressed responding was less than 50% of non-suppressed responding, with no upward or downward trend in response rates in either component), investigational compounds were administered i.v. during the extended timeout periods using a cumulative dosing technique. This technique allowed determination of a four-point dose-response function in a single session.
Table 2 summarizes data for TPA023B in the conflict procedure (n=4 monkeys, 2 females and 2 males), with alprazolam as a positive control. Average responses when vehicle was administered was 2.2 in the non-suppressed component, decreased by ˜98% by shock presentation in the suppressed component (mean=0.05 responses). For non-suppressed responding, TPA023B had no effects on mean rates of responding or percent of control over a 100-fold dose range (0.01 to 1.0 mg/kg, i.v.). […] This effect was similar to that observed with 0.03 mg/kg, i.v., of alprazolam. A striking characteristic of TPA023B in this procedure is the lack of attenuation of rates of responding at higher doses.

For data set [2], the system named is rhesus monkeys. Put plainly: Observation/sedation, focal animal behavioral scoring. The following applies: at least one dose significantly different from vehicle; out of 22 behaviors; i.v.; N = 4 monkeys. The class given is in vivo, rhesus monkey. The method, then:
For the data shown here, the behavior of each monkey (n=4 total) was scored using a focal animal approach as described previously (Duke et al. 2018, J Pharmacol Exp Ther 366: 145-57). Briefly, a trained observer blind to the drug treatments observed a specific monkey for 5 min and recorded each instance that a particular behavior occurred during 15-s intervals. Scores for each behavior were calculated as the number of 15-s bins in which the behavior occurred (e.g., a maximum score would be 20). For sedation measures, structured exposure to stimuli were included in the observation sessions (Duke et al., 2018). […] Specifically, the observer presented three stimuli: 1) walked at a normal pace towards the cage, 2) spoke the animal's name, and 3) moved the lock used to secure the door of the cage. […] If the monkey attended more slowly (i.e., >3 s following stimuli), the observer scored “moderate sedation”.
The assessment of sedation was initiated during the 5-min sampling period if the animal presented, at any time during that period, with its eyes closed for longer than 3 s. The result of this assessment was recorded for each remaining 15-sec interval of the 60-sec epoch unless eyes opened. Afterwards, eyes closing again initiated the assessment. If eyes remained closed, then the assessment was repeated at the beginning of the next 60-sec epoch 15-sec interval. Therefore, the maximum score for sedation during a 5-min period was 20 (four possible scores for 4×15-sec intervals per min, 5 min total; i.e., 4 possible scores×5 min=20). The order in which animals were observed and the observer performing the scoring each day was randomized. Four observers participated in the scoring throughout the duration of the study; each observer underwent a minimum of 20 hours of training and met an inter-observer reliability criterion of ≥90% agreement with all other observers.
The five-min sampling periods were repeated at multiple times following i.v. injection of TPA023B or vehicle (minutes post injection): 5, 10, 20, 40, 80, 160, 320. Scores were cumulated across the time periods, resulting in a maximum possible cumulative score of 140. TPA023B was compared with alprazolam, and the results have been published by Duke et al. (2018).

The subject of data set [3] is Sprague-Dawley rats. Kind of data set: Pulmonary ventilation, whole body plethysmography. In kind it is in vivo, rat. The following applies: 3.0 mg/kg, i.p.; N=8 rats. How it is done:
We first assessed the effects of TPA023B, in comparison with alprazolam, using whole body plethysmography (WBP; DSI systems). For these studies, adult male Sprague-Dawley rats (n=8) were habituated to the chambers for 30 min. The chamber was then filled with 21% oxygen, sealed, and pressure fluctuation measured for 1 min. Next, the chamber was opened and the rats were injected with alprazolam or TPA023B, i.p., and placed into the sealed chamber for a 15 min pretreatment time. The chamber was again filled with 21% oxygen, and for 1 min, fluctuating pressure amounts were recorded to obtain tidal volume (lung capacity), breaths/minute, and minute volume (lung capacity per unit time).

Details of data set [4]: key to Pharmacokinetics: “poor” - low bioavailability and/or short half-life; “good” - potent with long half-life. The following applies: in vivo; cited from earlier work.
For data set [5], the target named is α5 subunit-containing GABAA receptors (Homo sapiens, UniProt P18507+P31644). On the set-up: key to Subtype α5: act as partial positive modulators for particular subtype combinations; none: zero efficacy (i.e., antagonism) at other subtypes. The following applies: cited from earlier work.
Data set [6] deals with rats. Kind of data set: Blockade of diazepam suppression of responding (30 min pretreatment). The class given is in vivo, rat. The following applies: ligand 3.0 mg/kg; diazepam 30 min pretreatment; FIG. 12A; N=5. How it is done:
This profile is very similar to that of TPA023B despite the structural differences. […] For both compounds, we chose 3.0 mg/kg, i.p., in rats based on published literature or pilot studies in our laboratories.
FIGS. 12A and 12B illustrate the results of acute dependency testing using these compounds.

Data set [7] concerns the target α3 subunit-containing GABAA receptors (Homo sapiens, UniProt P18507+P34903). On the set-up: key: act as partial positive modulators for particular subtype combinations; none: zero efficacy (i.e., antagonism) at other subtypes. The note with it: cited from earlier work.
Data set [8] deals with α2 subunit-containing GABAA receptors (Homo sapiens, UniProt P18507+P47869). On the set-up: key: act as partial positive modulators for particular subtype combinations; none: zero efficacy (i.e., antagonism) at other subtypes. The note with it: cited from earlier work.
The target of data set [9] is α1 subunit-containing GABAA receptors (Homo sapiens, UniProt P14867+P18507). On the set-up: key to Subtype α1: act as partial positive modulators for particular subtype combinations; none: zero efficacy (i.e., antagonism) at other subtypes. The note with it: cited from earlier work.
For data set [10] the following is noted: rhesus monkey; cited from earlier work.
Data set [11] has as its system Sprague-Dawley rats. Kind of data set: Food-maintained responding (FR 10), ligand alone. The following applies: for effect on rates of responding: diazepam 3.0 mg/kg.
For data set [12], the system named is Sprague-Dawley rats. Kind of data set: Precipitated withdrawal/acute dependence: responding 60 min after diazepam bolus. In kind it is in vivo, rat. The method, then:
Acute dependence can occur after single exposures to the benzodiazepine chlordiazepoxide, but not to an α2/3GABAA selective ligand (Fischer et al. 2013, Psychopharmacology 227: 347-54). Here, the extent to which TPA023B can precipitate withdrawal in rats following a single, large bolus dose of diazepam was studied. […] Once rates of responding were stable, doses of diazepam, the non-selective benzodiazepine antagonist flumazenil, and TPA023B were administered prior to the session.

Data set [13] concerns rhesus monkeys. Put plainly: Midazolam self-administration (PR) after TPA023B pretreatment. The class given is in vivo, rhesus monkey. The note with it: midazolam alone, PR procedure. The method, then:
To test this, we have trained monkeys to self-administer the short-acting conventional benzodiazepine midazolam (0.056 mg/kg/injection, i.v.) in the PR procedure, as described above. During test sessions, we initially kept the training dose of midazolam constant, and administered i.v. pretreatments of TPA023B (0.003, 0.01, 0.03, 0.1, 0.3 mg/kg, of vehicle) immediately prior to the beginning of the session. A key consideration for any pharmacotherapy, as well as interpretation of blockade of reinforcing effects generally, is the extent to which the blockade is specific to the drug target and not a generalized suppression of behavior, e.g., due to sedative-motor effects inhibiting the ability of the monkey to press the lever. Another possible confounding factor that would potentially result in blockade of drug taking is general sickness or perceptual alterations. In particular, appetite suppression would represent an undesirable side effect in a benzodiazepine addiction pharmacotherapy.
To further evaluate the extent to which attenuation of responding was due to pharmacological antagonism and to evaluate an exemplary range of effective doses, we evaluated single doses of TPA023B administered prior to sessions in which differing doses of midazolam were tested.

“Also recorded” adds a separate entry of the source. Marks after values point to notes of the source that are not given here.

As a reminder, the bioavailability is the share of a dose that reaches the circulation, judged against a reference dose that is usually intravenous. Usually half-life stands for how long it takes for the measured level to halve.

Chain of α2 subunit-containing GABAA receptors (P47869 29-451): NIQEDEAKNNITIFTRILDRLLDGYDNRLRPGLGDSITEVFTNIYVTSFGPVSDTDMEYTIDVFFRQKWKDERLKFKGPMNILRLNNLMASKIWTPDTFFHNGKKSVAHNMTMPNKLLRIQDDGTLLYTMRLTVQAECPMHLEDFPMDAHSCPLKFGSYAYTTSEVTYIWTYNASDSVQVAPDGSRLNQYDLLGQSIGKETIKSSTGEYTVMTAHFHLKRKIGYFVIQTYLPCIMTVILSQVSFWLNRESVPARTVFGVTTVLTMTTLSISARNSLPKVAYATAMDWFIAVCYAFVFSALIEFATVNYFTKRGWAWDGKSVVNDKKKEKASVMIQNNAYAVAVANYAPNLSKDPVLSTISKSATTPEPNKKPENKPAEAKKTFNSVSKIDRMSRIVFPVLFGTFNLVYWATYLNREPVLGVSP
Chain of α2 subunit-containing GABAA receptors (P18507 40-475): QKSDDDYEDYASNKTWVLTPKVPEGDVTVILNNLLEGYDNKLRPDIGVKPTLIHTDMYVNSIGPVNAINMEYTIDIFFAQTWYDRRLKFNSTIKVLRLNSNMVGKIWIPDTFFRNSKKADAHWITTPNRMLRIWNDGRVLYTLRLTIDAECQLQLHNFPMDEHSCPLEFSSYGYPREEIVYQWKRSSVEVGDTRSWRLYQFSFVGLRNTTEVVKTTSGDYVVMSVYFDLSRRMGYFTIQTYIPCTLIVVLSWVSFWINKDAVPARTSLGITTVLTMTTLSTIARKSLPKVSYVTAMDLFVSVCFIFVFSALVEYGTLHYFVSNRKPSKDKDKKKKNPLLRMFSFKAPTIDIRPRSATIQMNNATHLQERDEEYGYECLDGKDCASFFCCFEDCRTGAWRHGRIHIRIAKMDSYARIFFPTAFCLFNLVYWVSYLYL
Chain of α2 subunit-containing GABAA receptors (P28472 26-473 partner): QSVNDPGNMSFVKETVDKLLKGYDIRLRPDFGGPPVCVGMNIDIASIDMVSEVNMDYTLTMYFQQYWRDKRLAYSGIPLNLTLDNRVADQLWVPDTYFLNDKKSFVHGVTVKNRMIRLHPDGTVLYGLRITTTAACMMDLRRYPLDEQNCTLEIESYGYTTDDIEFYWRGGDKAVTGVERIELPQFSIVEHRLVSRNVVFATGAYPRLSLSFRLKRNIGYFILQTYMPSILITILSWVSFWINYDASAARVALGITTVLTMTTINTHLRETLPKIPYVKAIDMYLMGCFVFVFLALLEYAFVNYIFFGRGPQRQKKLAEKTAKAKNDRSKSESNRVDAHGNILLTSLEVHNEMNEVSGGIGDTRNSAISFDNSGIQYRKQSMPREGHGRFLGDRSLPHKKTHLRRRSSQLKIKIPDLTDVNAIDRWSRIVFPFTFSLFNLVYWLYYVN
Chain of α3 subunit-containing GABAA receptors (P34903 29-492): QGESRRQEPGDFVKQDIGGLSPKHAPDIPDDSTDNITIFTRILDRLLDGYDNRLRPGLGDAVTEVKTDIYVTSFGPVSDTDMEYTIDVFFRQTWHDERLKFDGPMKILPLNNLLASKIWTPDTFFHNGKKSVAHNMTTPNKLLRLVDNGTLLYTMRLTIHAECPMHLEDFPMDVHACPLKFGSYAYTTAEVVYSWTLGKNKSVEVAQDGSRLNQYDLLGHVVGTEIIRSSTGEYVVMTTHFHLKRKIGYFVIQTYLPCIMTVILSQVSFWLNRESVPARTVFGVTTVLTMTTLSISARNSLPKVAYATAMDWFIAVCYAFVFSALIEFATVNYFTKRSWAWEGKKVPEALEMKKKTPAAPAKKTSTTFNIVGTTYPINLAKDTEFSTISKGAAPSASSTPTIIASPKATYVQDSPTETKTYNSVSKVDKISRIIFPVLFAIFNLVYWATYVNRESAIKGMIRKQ
Chain of α3 subunit-containing GABAA receptors (P18507 40-475): as the sequence (P18507 40-475) above
Chain of α3 subunit-containing GABAA receptors (P28472 26-473 partner): as the sequence (P28472 26-473 partner) above
Chain of α1 subunit-containing GABAA receptors (P14867 28-456): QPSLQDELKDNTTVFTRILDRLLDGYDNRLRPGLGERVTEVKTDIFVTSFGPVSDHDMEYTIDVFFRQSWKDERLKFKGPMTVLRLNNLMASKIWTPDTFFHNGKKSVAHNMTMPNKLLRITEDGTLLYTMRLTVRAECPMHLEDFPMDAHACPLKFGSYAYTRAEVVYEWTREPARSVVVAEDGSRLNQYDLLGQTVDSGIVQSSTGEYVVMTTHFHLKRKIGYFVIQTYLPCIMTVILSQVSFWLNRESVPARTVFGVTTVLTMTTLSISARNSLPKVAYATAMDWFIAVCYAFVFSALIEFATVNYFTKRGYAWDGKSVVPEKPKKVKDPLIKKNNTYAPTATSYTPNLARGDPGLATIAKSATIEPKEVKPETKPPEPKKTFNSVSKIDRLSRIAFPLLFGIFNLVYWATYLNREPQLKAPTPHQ
Chain of α1 subunit-containing GABAA receptors (P18507 40-475): as the sequence (P18507 40-475) above
Chain of α1 subunit-containing GABAA receptors (P28472 26-473 partner): as the sequence (P28472 26-473 partner) above
Chain of α5 subunit-containing GABAA receptors (P31644 32-462): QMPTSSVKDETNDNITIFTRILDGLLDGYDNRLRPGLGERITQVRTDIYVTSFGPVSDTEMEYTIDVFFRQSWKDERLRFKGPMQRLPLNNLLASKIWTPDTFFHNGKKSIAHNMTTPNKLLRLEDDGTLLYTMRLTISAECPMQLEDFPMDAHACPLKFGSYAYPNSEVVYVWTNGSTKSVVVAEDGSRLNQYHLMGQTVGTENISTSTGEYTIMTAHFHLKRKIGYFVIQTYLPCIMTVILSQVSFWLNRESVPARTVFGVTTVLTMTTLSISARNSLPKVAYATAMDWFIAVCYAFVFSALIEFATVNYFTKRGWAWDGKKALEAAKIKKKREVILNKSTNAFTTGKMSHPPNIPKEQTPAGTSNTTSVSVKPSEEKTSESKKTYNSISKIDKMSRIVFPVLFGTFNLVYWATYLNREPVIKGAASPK
Chain of α5 subunit-containing GABAA receptors (P18507 40-475): as the sequence (P18507 40-475) above
Chain of α5 subunit-containing GABAA receptors (P28472 26-473 partner): as the sequence (P28472 26-473 partner) above

For `Cc1nnc2n1-c1ccc(Cl)cc1C(c1ccccc1)=NC2` [Alprazolam, alprazolam], in [1] (0.03 mg/kg), the “Non-Suppressed, Mean responses/s (SEM)” value was 1.8 (0.31) responses/s and the “Suppressed, Mean responses/s (SEM)” value is reported as 1.9 (0.10)* responses/s. In data set [1] (0.3 mg/kg), the “effect on non-suppressed responding” value was “markedly attenuated”; the “Non-Suppressed, Mean responses/s (SEM)” value was 0.18 (0.09)* responses/s; the “Suppressed, Mean responses/s (SEM)” value is given as 0.10 (0.10) responses/s. Further, in data set [2], the “Significant behavioral effects: Decrease” value was “Exploration; also recorded: Passive Visual, Tactile/Oral” and the “Significant behavioral effects: Increase” value is “Sedation, Deep Sedation,; also recorded: Observable Ataxia; also recorded: Rest/Sleep Posture, Moderate”. Also, in [3], the breathing frequency entry is reported as “significantly reduced” and the minute volume result is given as “significantly reduced”.
On to `Cn1ncnc1COc1nn2c(-c3cc(F)ccc3F)nnc2cc1C(C)(C)C` [L-838,417], for which, in data set [4], the “PK” value was “Poor” and the Pharmacokinetics entry is given as “poor”. Also, the “Subtype α5” value in data set [5] is on record as “partial”. Further, the “ability of diazepam to suppress rates of responding” value in [6] is listed as “blocked”. The “Subtype α3” value in data set [7] was “partial”. For the same molecule, the “Subtype α2” value in data set [8] is given as “partial”. In addition, in data set [9], the “Subtype α1” value is listed as “none” and the “efficacy at α1GABAA subtype” value was “antagonist; also recorded: no efficacy”.
On to `Cn1ncnc1COc1nn2c(-c3ccccc3)nnc2cc1C1CCC1` [MRK-067], for which the “PK” value in data set [4] was “poor”.
On to `Cn1ncnc1COc1nn2c(-c3ccccc3F)nnc2cc1C1CCC1` [MRK-696], for which, in data set [4], the Pharmacokinetics result is listed as “poor”. The “Subtype α5” value in [5] is on record as “partial”. Also, the “Subtype α3” value in data set [7] is reported as “partial”. The “Subtype α2” value in data set [8] is “partial”. Moreover, the “Subtype α1” value in [9] was “partial”.
Take `N#Cc1cc(F)ccc1-c1cc(-c2cnc3nc(C(F)(F)F)ccn23)ccc1F` [MRK-898]: in [4], the Pharmacokinetics entry is listed as “good”. Moreover, in data set [10], the bioavailability is listed as 49% and the half-life is 13 h. Moreover, in [5], the “Subtype α5” value is “none” and the “efficacy at α5GABAA subtype” value is “antagonist”. The “Subtype α3” value in data set [7] is given as “partial”. Besides, the “Subtype α2” value in data set [8] is given as “partial”. In [9], the “Subtype α1” value is “none” and the “efficacy at α1GABAA subtype” value is on record as “antagonist”.
As to `CN1C(=O)CN=C(c2ccccc2)c2cc(Cl)ccc21` [diazepam], the “mean rates of responding (percent of baseline control), ligand alone” value in data set [11] (N=8 rats, FIGS. 10A to 10C) was “significantly decreased”. Besides, the “effect on rates of responding” value in [11] (30 min pre-treatment) is “most robust effects”; in [11] (60 min pre-treatment), “no effects”.
For `CCOC(=O)c1ncn2c1CN(C)C(=O)c1cc(F)ccc1-2` [flumazenil, reference compound], the “rates of responding 60 min after 3.0 mg/kg diazepam (precipitated withdrawal)” value in data set [12] (all doses tested, vs ligand alone, FIGS. 11A and 11B) was “robustly suppressed responding”. The “rates of responding after 60-min pretreatment of diazepam (acute dependence)” value in data set [12] (ligand 3.0 mg/kg, FIG. 12B, N=5) is on record as “significant decrease”. The “ability of diazepam to suppress rates of responding” value in data set [6] is “blocked”.
Turning to `Cc1ncc2n1-c1ccc(Cl)cc1C(c1ccccc1F)=NC2` [midazolam, reference compound], in data set [13], the “dose showing maximal self-administration” value came out at 0.018 mg/kg/injection.
In the case of MRK-409, the Pharmacokinetics result in [4] is “good”. The “Subtype α5” value in data set [5] was “partial”. In data set [7], the “Subtype α3” value is recorded as “partial”. For the same molecule, the “Subtype α2” value in data set [8] is recorded as “partial”. The “Subtype α1” value in [9] is “partial”.
